Measured values as given in ChEMBL document CHEMBL5034031, “Discovery of Next-Generation Tropomyosin Receptor Kinase Inhibitors for Combating Multiple Resistance Associated with Protein Mutation” (J Med Chem, 2021).

Tests used:
[1] = AUC(0 to infinity) in Beagle dog at 5 mg/kg, ig measured upto 24 hrs by LC-MS/MS analysis; type: ADME, organism-based, Canis lupus familiaris; parameters: route […], dose 5 mg/kg, time <=24; conditions: in vivo, po
[2] = biological target: High affinity nerve growth factor receptor (Homo sapiens, UniProt P04629)
[3] = biological target: [Pyruvate dehydrogenase (acetyl-transferring)] kinase isozyme 1, mitochondrial (Homo sapiens) (UniProt Q15118); assay: Inhibition of PDK1 (unknown origin) at 1 uM relative to control
[4] = biological target: Tyrosine-protein kinase JAK1 (Homo sapiens) (UniProt P23458); assay: Inhibition of JAK1 (unknown origin) at 1 uM relative to control
[5] = biological target: NT-3 growth factor receptor (Homo sapiens, UniProt Q16288, G623R)
NT-3 growth factor receptor, sequence (Q16288 32-839 G623R limits assumed): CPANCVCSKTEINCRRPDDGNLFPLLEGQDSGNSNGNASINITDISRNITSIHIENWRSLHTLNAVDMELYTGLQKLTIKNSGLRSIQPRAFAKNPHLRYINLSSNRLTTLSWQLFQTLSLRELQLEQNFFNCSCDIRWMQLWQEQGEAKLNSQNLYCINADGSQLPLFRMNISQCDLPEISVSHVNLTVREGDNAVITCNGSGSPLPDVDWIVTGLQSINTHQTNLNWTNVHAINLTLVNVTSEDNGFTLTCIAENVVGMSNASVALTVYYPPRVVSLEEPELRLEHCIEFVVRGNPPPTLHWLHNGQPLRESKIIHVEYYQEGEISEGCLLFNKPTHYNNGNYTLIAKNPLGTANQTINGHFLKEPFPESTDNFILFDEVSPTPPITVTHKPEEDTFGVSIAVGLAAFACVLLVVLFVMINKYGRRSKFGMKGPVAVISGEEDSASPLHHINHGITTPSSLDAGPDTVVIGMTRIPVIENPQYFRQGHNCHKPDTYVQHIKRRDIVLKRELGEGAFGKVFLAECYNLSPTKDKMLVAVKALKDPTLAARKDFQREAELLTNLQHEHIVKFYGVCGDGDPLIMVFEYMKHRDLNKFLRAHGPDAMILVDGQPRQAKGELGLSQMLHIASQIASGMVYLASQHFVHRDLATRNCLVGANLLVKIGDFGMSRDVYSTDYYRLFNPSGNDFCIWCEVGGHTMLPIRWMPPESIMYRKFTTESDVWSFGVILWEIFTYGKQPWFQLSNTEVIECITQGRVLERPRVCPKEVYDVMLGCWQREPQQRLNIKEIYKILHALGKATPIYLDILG

BaF3 [6] = assay: Antiproliferative activity against mouse BaF3 cells transfected with ETV6-wild type TRKA assessed as cell viability incubated for 72 hrs by CCK8 assay; type: functional, cell-based; conditions: BaF3, 72 h
[7] = biological target: Serine/threonine-protein kinase Chk1 (Homo sapiens) (UniProt O14757); assay: Inhibition of CHK1 (unknown origin) at 1 uM relative to control
Serine/threonine-protein kinase Chk1 (Homo sapiens), sequence (O14757 whole entry): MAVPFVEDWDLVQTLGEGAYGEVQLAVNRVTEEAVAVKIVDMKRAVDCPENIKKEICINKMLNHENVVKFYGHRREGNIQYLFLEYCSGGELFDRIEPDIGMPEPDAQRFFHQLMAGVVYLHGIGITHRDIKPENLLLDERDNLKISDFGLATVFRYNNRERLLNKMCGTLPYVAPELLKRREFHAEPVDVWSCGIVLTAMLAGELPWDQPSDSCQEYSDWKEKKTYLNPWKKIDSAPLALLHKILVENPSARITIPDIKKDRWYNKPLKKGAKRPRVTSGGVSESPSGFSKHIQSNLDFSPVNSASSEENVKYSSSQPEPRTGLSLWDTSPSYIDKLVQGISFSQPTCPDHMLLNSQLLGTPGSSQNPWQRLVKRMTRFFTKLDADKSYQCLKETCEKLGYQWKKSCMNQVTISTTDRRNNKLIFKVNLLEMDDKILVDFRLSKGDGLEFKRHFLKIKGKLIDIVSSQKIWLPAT

[8] = biological target: Platelet-derived growth factor receptor alpha (Homo sapiens) (UniProt P16234); assay: Inhibition of PDGFRalpha (unknown origin) at 1 uM relative to control
[9] = biological target: Serine/threonine-protein kinase PLK1 (Homo sapiens) (UniProt P53350); assay: Inhibition of PLK1 (unknown origin) at 1 uM relative to control
[10] = biological target: Voltage-gated inwardly rectifying potassium channel KCNH2 (Homo sapiens, UniProt Q12809); assay: Inhibition of hERG
Voltage-gated inwardly rectifying potassium channel KCNH2, sequence (Q12809 whole entry): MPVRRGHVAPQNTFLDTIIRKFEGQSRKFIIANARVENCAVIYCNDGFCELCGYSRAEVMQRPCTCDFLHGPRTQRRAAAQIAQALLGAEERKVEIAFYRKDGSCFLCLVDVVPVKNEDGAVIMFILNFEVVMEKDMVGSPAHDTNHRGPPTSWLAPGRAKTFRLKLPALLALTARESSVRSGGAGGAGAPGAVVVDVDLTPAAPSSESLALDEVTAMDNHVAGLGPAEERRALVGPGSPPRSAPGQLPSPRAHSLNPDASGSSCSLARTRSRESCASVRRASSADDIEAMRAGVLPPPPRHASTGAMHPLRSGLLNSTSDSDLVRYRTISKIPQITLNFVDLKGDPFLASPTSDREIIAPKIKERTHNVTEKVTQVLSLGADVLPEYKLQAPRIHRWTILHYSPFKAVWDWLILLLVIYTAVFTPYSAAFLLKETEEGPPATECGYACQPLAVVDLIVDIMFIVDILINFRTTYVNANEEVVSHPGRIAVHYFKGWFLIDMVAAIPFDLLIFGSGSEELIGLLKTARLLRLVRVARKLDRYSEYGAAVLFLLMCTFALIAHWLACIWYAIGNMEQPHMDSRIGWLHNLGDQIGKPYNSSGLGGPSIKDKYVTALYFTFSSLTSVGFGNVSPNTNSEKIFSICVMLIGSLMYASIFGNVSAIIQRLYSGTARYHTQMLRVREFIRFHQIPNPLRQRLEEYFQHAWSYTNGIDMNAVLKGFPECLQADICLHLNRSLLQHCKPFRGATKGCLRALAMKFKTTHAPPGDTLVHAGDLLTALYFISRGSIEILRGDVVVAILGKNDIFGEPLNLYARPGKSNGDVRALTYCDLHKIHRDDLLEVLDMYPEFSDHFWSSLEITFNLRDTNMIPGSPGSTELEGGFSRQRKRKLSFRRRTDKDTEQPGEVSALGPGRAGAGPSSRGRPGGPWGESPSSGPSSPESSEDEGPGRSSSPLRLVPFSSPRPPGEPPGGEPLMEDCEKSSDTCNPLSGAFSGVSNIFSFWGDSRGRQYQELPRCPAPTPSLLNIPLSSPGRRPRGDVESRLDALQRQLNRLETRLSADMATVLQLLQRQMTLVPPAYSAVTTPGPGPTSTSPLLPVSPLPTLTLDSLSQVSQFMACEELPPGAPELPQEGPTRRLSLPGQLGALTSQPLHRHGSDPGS

[11] = biological target: Rho-associated protein kinase 1 (Homo sapiens) (UniProt Q13464); assay: Inhibition of ROCK1 (unknown origin) at 1 uM relative to control
[12] = biological target: Homeodomain-interacting protein kinase 1 (Homo sapiens) (UniProt Q86Z02); assay: Inhibition of HIPK1 (unknown origin) at 1 uM relative to control
Homeodomain-interacting protein kinase 1 (Homo sapiens), sequence (Q86Z02 whole entry, looked up): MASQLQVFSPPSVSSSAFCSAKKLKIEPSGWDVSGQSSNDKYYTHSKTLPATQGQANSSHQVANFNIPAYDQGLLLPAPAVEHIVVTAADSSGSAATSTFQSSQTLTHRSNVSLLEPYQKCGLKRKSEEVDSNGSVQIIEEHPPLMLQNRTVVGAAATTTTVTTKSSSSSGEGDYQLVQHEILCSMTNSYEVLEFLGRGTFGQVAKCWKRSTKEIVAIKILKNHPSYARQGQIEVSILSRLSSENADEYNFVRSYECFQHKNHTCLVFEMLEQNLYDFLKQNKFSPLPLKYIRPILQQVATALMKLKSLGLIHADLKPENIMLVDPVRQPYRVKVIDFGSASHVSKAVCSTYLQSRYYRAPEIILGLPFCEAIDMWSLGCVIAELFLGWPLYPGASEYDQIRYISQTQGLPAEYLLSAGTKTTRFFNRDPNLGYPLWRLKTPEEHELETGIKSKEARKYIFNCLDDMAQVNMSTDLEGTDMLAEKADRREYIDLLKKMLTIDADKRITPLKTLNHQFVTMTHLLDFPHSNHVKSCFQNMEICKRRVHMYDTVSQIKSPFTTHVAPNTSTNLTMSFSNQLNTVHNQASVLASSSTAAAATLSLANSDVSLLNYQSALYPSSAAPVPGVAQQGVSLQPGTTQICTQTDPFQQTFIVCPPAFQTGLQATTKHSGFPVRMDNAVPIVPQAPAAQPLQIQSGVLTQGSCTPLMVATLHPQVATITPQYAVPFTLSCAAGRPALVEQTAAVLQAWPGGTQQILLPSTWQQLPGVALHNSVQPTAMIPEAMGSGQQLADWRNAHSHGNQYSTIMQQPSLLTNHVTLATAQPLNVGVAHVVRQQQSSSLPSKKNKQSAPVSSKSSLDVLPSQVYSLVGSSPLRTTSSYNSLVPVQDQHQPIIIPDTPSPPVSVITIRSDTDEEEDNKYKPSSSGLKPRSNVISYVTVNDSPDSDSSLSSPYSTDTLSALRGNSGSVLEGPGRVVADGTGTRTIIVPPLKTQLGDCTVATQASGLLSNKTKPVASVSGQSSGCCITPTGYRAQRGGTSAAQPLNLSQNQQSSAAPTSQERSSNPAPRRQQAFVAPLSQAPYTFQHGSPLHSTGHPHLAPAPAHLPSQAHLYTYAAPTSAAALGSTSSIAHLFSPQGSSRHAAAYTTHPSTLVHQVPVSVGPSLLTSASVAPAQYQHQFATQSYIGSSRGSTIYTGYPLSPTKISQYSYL

[13] = Half life in Beagle dog at 1 mg/kg, iv measured upto 24 hrs by LC-MS/MS analysis; type: ADME, organism-based, Canis lupus familiaris; conditions: in vivo
[14] = biological target: Tyrosine-protein kinase ABL2 (Homo sapiens) (UniProt P42684); assay: Inhibition of ABL2 (unknown origin) at 1 uM relative to control
BaF3 [15] = assay: Antitumor activity against mouse BAF3 cells harboring TMP3 fused TRKA G595R mutant xenografted in BALB/c nude mouse assessed as tumor growth inhibition at 30 mg/kg, po administered twice daily for 12 to […] consecutive days; type: functional; conditions: time 12-14 day, read-out: TGI
[16] = AUC(0 to infinity) in Sprague-Dawley rat at 1 mg/kg, iv measured upto 24 hrs by LC-MS/MS analysis; type: ADME, organism-based; parameters: route intravenous, dose 1 mg/kg, time <=24; conditions: in vivo
[17] = Half life in Beagle dog at 5 mg/kg, ig measured upto 24 hrs by LC-MS/MS analysis; type: ADME, organism-based, Canis lupus familiaris; conditions: in vivo, po
[18] = biological target: High affinity nerve growth factor receptor (Homo sapiens, UniProt P04629, G595R)
[19] = biological target: BDNF/NT-3 growth factors receptor (Homo sapiens) (UniProt Q16620); assay: Inhibition of TRKB (unknown origin) at 1 uM relative to control
BDNF/NT-3 growth factors receptor (Homo sapiens), sequence (Q16620 32-822 limits assumed): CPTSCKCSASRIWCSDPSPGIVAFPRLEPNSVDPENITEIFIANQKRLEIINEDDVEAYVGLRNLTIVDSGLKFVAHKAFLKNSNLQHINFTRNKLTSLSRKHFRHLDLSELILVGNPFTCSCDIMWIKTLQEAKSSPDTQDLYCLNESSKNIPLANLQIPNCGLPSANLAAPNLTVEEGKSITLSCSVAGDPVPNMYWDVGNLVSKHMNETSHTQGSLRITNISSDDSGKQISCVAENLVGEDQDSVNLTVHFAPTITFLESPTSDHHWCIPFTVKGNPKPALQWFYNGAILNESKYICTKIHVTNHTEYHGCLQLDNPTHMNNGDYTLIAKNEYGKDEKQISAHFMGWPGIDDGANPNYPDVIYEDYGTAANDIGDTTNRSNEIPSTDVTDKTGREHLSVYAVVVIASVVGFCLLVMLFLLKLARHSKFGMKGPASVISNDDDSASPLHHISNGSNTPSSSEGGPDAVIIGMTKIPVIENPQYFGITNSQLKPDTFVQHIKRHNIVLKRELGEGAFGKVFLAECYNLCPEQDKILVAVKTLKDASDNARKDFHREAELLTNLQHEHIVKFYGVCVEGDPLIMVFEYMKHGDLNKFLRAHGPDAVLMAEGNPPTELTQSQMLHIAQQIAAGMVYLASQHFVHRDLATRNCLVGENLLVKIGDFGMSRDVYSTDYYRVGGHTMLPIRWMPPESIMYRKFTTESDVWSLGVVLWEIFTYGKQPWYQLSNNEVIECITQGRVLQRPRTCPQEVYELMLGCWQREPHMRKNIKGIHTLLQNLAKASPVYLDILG

[20] = biological target: Tyrosine-protein kinase receptor UFO (Homo sapiens) (UniProt P30530); assay: Inhibition of AXL (unknown origin) at 1 uM relative to control
[21] = biological target: ALK tyrosine kinase receptor (Homo sapiens) (UniProt Q9UM73); assay: Inhibition of ALK (unknown origin) at 1 uM relative to control
[22] = Plasma protein binding in human; type: ADME, cell-free; conditions: read-out: PPB (converted)
[23] = biological target: Cytoplasmic tyrosine-protein kinase BMX (Homo sapiens) (UniProt P51813); assay: Inhibition of BMX (unknown origin) at 1 uM relative to control
[24] = biological target: Tyrosine-protein kinase ZAP-70 (Homo sapiens) (UniProt P43403); assay: Inhibition of ZAP70 (unknown origin) at 1 uM relative to control
Tyrosine-protein kinase ZAP-70 (Homo sapiens), sequence (P43403 whole entry, the tested form may be a part): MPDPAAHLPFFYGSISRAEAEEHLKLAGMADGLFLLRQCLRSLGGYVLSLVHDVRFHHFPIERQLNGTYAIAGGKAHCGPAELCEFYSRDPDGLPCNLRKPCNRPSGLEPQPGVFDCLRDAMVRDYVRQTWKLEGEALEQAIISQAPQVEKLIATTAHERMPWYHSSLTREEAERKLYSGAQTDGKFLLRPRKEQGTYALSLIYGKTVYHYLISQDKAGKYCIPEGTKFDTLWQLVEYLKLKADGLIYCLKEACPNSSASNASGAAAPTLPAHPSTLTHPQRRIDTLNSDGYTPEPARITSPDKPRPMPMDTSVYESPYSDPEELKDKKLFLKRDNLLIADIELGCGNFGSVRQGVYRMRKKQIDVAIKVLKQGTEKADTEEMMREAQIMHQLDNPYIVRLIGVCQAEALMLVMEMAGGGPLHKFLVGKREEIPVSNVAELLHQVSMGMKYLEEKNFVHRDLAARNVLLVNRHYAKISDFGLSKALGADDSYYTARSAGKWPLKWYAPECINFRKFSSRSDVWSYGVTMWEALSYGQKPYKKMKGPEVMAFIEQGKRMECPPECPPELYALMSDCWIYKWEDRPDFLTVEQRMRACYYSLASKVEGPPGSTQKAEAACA

[25] = Toxicity in BALB/c mouse xenografted with mouse BAF3 cells harboring TMP3 fused wild type TRKA assessed as mortality at 15 mg/kg, po administered twice daily for 12 to […] consecutive days; type: organism-based; conditions: in vivo, time 12-14 day
BaF3 [26] = assay: Antitumor activity against mouse BAF3 cells harboring ETV6 fused TRKC G623R mutant xenografted in BALB/c nude mouse assessed as tumor growth inhibition at 30 mg/kg, po administered twice daily for 12 to […] consecutive days; type: functional; conditions: time 12-14 day, read-out: TGI
[27] = biological target: Focal adhesion kinase 1 (Homo sapiens) (UniProt Q05397); assay: Inhibition of FAK (unknown origin) at 1 uM relative to control
BaF3 [28] = assay: Antitumor activity against mouse BAF3 cells harboring TMP3 fused wild type TRKA xenografted in BALB/c nude mouse assessed as tumor growth inhibition at 5 mg/kg, po administered twice daily for 12 to […] consecutive days; type: functional; conditions: time 12-14 day, read-out: TGI
[29] = biological target: Maternal embryonic leucine zipper kinase (Homo sapiens) (UniProt Q14680); assay: Inhibition of MELK (unknown origin) at 1 uM relative to control
BaF3 [30] = assay: animal or person; type: functional; conditions: Mus musculus, BaF3, po; dose 15 mg/kg; time 12-14 day; read-out: TGI
[31] = Toxicity in BALB/c mouse xenografted with mouse BAF3 cells harboring ETV6 fused TRKC G623R mutant assessed as mortality at 15 to 30 mg/kg, po administered twice daily for 12 to […] consecutive days; type: organism-based; conditions: in vivo, dose lower 15 mg/kg, time lower 12 day, dose upper 30 mg/kg, time upper 14 day
[32] = biological target: Serine/threonine-protein kinase Nek6 (Homo sapiens) (UniProt Q9HC98); assay: Inhibition of NEK6 (unknown origin) at 1 uM relative to control
[33] = biological target: Vascular endothelial growth factor receptor 2 (Homo sapiens) (UniProt P35968); assay: Inhibition of KDR (unknown origin) at 1 uM relative to control
[34] = Tmax in Beagle dog at 5 mg/kg, ig measured upto 24 hrs by LC-MS/MS analysis; type: ADME, organism-based, Canis lupus familiaris; conditions: in vivo, po
BaF3 [35] = assay: Antiproliferative activity against mouse BAF3 cells transfected with LMNA-TRKA G595R mutant assessed as cell viability incubated for 72 hrs by CCK8 assay; type: functional, cell-based; conditions: BaF3, 72 h
[36] = Oral bioavailability in Sprague-Dawley rat at 5 mg/kg measured upto 24 hrs by LC-MS/MS analysis; type: ADME, organism-based; conditions: in vivo
[37] = Clearance in Beagle dog at 1 mg/kg, iv measured upto 24 hrs by LC-MS/MS analysis; type: ADME, organism-based, Canis lupus familiaris; conditions: in vivo

Structure (SMILES): C[C@@H](Nc1ccn2ncc(-c3cnn(CCO)c3)c2n1)c1cc(F)ccc1OCC(F)F
- AUC(0-inf) [1]: 9630 ng·h/mL
- IC50 [2]: 0.7 nM
- inhibition [3]: < 50%
- inhibition [4]: > 80%
- IC50 [5]: 0.6 nM
- IC50 (BaF3 [6]): 0.2 nM
- inhibition [7]: < 50%
- inhibition [8]: < 50%
- inhibition [9]: < 50%
- IC50 [10]: > 10000 nM
- inhibition [11]: < 50%
- inhibition [12]: < 50%
- half-life [13]: 7.2 h
- inhibition [14]: > 80%
- inhibition in vivo at 30 mg/kg (BaF3 [15]): 61%
- AUC(0-inf) [16]: 213 ng·h/mL
- half-life [17]: 6.28 h
- IC50 [18]: 0.2 nM
- inhibition [19]: > 80%
- inhibition [20]: > 80%
- inhibition [21]: > 80%
- fraction unbound [22]: 0.044
- inhibition [23]: > 80%
- inhibition [24]: < 50%
- Activity [25]: Non-Toxic
- inhibition in vivo at 30 mg/kg (BaF3 [26]): 88%
- inhibition [27]: > 80%
- inhibition in vivo at 5 mg/kg (BaF3 [28]): 64%
- inhibition [29]: < 50%
- inhibition in vivo at 15 mg/kg (BaF3 [30]): 85%
- Activity [31]: Non-Toxic
- inhibition [32]: < 50%
- inhibition [33]: < 50%
- Tmax [34]: 0.83 h
- IC50 (BaF3 [35]): 1.6 nM
- bioavailability [36]: 49%
- clearance [37]: 7.83 mL/min/kg
